Values of other authors as cited in patent US20050085455A1, “Photodynamic therapy for local adipocyte reduction” (Light Sciences Corporation, priority 2003, published 2005).

Settings: systemically administered sensitizer in clinical use; for duration of skin sensitization: result in words

For `CCOC(=O)C1=Cc2c3nc(cc4nc(cc5[n-]c(cc6[n-]c2c(C)c6CC)c(C)c5CC)C(C)=C4CC)[C@@H](C)[C@]13CC.[Cl-].[Cl-].[Sn]` (racemic) [Purlytin], the “duration of skin sensitization” value is given as “several weeks”.

For `Oc1cccc(-c2c3nc(c(-c4cccc(O)c4)c4ccc([nH]4)c(-c4cccc(O)c4)c4nc(c(-c5cccc(O)c5)c5ccc2[nH]5)CC4)C=C3)c1` [Foscan], the “duration of skin sensitization” value is listed as “several weeks”.

In the case of sodium porfimer [Photophrin], the duration of photosensitivity (skin photosensitivity) is given as “up to 6 weeks”.
